The source of these data is US20150329864A1, “DESIGN OF OLIGONUCLEOTIDE ANALOGS AS THERAPEUTIC AGENTS” (SPRING BANK PHARMACEUTICALS, INC., priority 2010, published 2015).

Series [1] can be described thus: Cytotoxicity by neutral red dye uptake in HCV replicon cultures. Type of series: cell-based. To be noted: human, AVA5 HCV replicon cell line (sub-genomic CON1, genotype 1b); parallel plates, 3-day assay; read-out: CC50, neutral red dye uptake. The procedure: Antiviral activity against HCV was assessed in a 3-day assay (Okuse, et al., 2005; Antiviral. Res. 65:23; Korba, et al., 2008, Antiviral Res. 77:56) using the stably-expressing HCV replicon cell line, AVA5 (sub-genomic (CON1), genotype 1b) (Blight, et al., 2000; Science 290:1972) maintained as sub-confluent cultures on 96-well plates. Antiviral activity was determined by blot hybridization analysis of intracellular HCV RNA (normalized to the level of cellular B-actin RNA in each culture sample). Cytotoxicity was assessed by neutral red dye uptake in cultures maintained in parallel plates.
EC50, EC90, and CC50 values were calculated by linear regression analysis (MS EXCEL®, QuattroPro®) using data combined from all treated cultures Korba & Gerin, 1992, Antivir. Res. 19:55; Okuse, et al., 2005, Antivir. Res. 65:23). […]
Combination treatments are conducted as previously described. Briefly, two agents were mixed together at a pre-determined concentration ratio. […] Analysis of drug interactions in the combination studies was determined by the use of the CALCUSYN program (Biosoft, Inc., Cambridge, United Kingdom). […]
A general note: In antiviral work, replicon cells carry a viral genome segment that copies itself.

Another series deals with HCV. The series is described as follows: Combination studies against HCV in replicon assays. To be noted: Hepatitis C virus, read-out: EC50 (uM), single drug. Type of series: cell-based.
The subject of a further series is human hepatitis B virus. Nature of the series: Anti-HBV activity in the HBV transgenic mouse model, oral administration. It is filed as in vivo, transgenic mice. To be noted: for Liver HBV DNA Southern blot (pg/μg mean ± sd): p.o. The procedure: (§1) Compound 6k was evaluated for anti-HBV activity in the transgenic mouse model of HBV infection. Male transgenic mouse infected with HBV, with age ranging from 78 to 108 days were used. Compound 6k was initially evaluated at a single dose of 300 mg/kg, administered daily for 14 days by oral gavage. The compounds were administered in citric acid and adefovir dipivoxil was used as a positive control. A control group which received vehicle was used a negative control. Following the treatment, mice were sacrificed and liver tissue analyzed for HBV DNA using Southern blot analysis. The data was statistically evaluated using Kruskall-Wallis non-parametric ANOVA.
(§2) (a) Male and female transgenic mice (founder 1.3.32) were infected with human hepatitis B virus. Following infection, animals were orally administered Compound 6k, or a placebo of 0.05 M citric acid, pH 2.0 once daily for 14 days. Dosage was 300 mg/kg/d for Compound 6k. The positive control, ADV, was administered at 10 mg/kg/d.
Male and female transgenic mice (founder 1.3.32) were infected with human hepatitis B virus. Following infection, animals were orally administered Compound 6k, or a placebo of 0.05 M citric add, pH 2.0 once daily for 14 days. Dosages were 100, 10.5 and 1 mg/kg/d for Compound 6K. The positive control, ADV, was administered at 10 mg/kg/d.

Series [2] concerns HCV replicon H/FL-Neo (genotype 1a (H77), full length construct). The series is described as follows: Secondary anti-HCV assay, replicon H/FL-Neo. It is filed as cell-based. Particulars: Hepatitis C virus. From the text:
This assay assesses activity against additional genotypes using the format described for the primary assay. Activity against the genotype 1b HCV was included for comparison. A replicon cell line containing H/FL-Neo (genotype 1a (H77), full length construct) (Blight, et al., 2003, J. Virol. 77:3181) was used.

Series [3] can be described thus: Weight change and apparent toxicity in orally treated HBV transgenic mice. Type of series: in vivo. As for the experimental part: as §1, §2
Statistical significance is indicated as *P≦0.05, **P≦0.01, ***P≦0.001 compared to placebo vehicle.

Where [4] appears, read: 300 mg/kg/d, oral, once daily 14 days.

A value given as a limit tells only on which side of the number the result lay.

The CC50 is the concentration that lowers cell viability or growth by half. The EC50 is the concentration at which the effect is half-maximal. One may read the EC90 as the point of the concentration-response curve where the effect stands at 90%. Low readings indicate an effect from little substance, high ones a need for much substance. For the compound `CO[C@H]1C(OP(=O)(OC[C@H]2O[C@@H](n3cnc4c(N)ncnc43)CC2O)SCOC(=O)OC(C)C)[C@@H](CO)O[C@H]1n1ccc(=O)[nH]c1=O` (stereo partly drawn) [Compound 6k], the CC50 at 3 day in series [1] is > 100000 nM. Besides, the 50% effective concentration (EC50) was 1.5 to 2.3 µM with HCV and 1000 nM in series [2]. Besides, the “Liver HBV DNA Southern blot (pg/μg mean ± sd)” value in the series with human hepatitis B virus (1 mg/kg/d, qd × 14 d) is 16.4 ± 14.7 (6) pg/μg; in the series with human hepatitis B virus (10 mg/kg/d, qd × 14 d (Table 2)), 3.4 ± 4.4 (7) pg/μg; in the series on human hepatitis B virus (100 mg/kg/d, qd × 14 d) it was 7.2 ± 8.9 (6) pg/μg; with human hepatitis B virus (300 mg/kg/d, qd × 14 d (Table 2)), 4.8 ± 4.4 (2) pg/μg. In the series with human hepatitis B virus (300 mg/kg daily for 14 days by oral gavage), the “reduction of liver HBV DNA compared to untreated control” value was “up to 2 log”. The “Liver HBV RNA (log transcripts ± sd)” value with human hepatitis B virus (setting [4]) came out at 10.8 ± 0.4 log transcripts. In the series with human hepatitis B virus (setting [4]), the “QPCR Liver HBV DNA (pg/μg mean ± sd)” value was found to be 13.3 ± 12 pg/µg. The “Southern blot Liver HBV DNA (pg/μg mean ± sd)” value in the series with human hepatitis B virus (300 mg/kg/d, oral, once daily 14 days (Table 1)) is 5.7 ± 3.2 pg/µg. The “EC50 when administered orally to a hepatitis B transgenic mouse model” value in the series on human hepatitis B virus (oral) was “approximately 10 mg/kg”. In series [2], the EC90 was ~6000 nM. For the same compound, in series [3] (setting [4]), the “% weight change ± sd” value is reported as 4.3 ± 1.8%. Besides, the apparent toxicity entry in series [3] (high doses employed, oral once daily 14 days) is “no apparent toxicity”.
